Patent US11440903B2, “Salt form and crystal form of compound as FGFR4 inhibitor and preparation method thereof” (GUANGDONG ZHONGSHENG PHARMACEUTICAL CO., LTD, priority 2017, dated 2022)
Where two headings read alike, the source gives them in different places.

How the values were obtained:
[1] = Solubility test in biological media (FaSSIF, FeSSIF, SGF) and water, 37° C.; format: physicochemical; settings: for Status (24 h) / solubility at 24 h / pH 24 hours: 37° C.; for Status (24 h): about 4 mg in 2 mL; for solubility at 24 h: salt forms converted to salt concentrations, read-out: Solubility (mg/mL) 24 hours; for pH 24 hours: supernatant; for pH 0 hour: initial
Protocol: Step 1: Preparation of Control Solutions (0.2 mg/mL, calculated by free base)
2 mg the crystal form B of the compound represented by formula (I) (or 2.4 mg the crystal form E of the compound represented by formula (II)) as a control was precisely weighed and placed into a 40 mL glass vial, and a diluent (10 mL) was precisely added. The reaction solution was subjected to ultrasonic treatment for 20 min to sufficiently dissolve, then cooled to room temperature and shaked well. Two control solutions (STD #1, STD #2) were formulated in accordance with this method.
Step 2: Preparation of Linear Solutions
The control solution STD #1 of the crystal form B of the compound represented by formula (I) was 1×, 10×, 100×, 1000× and 2000× (free base LOQ) diluted, and designated as the linear solutions L1, L2, L3, L4 and L5; the control solution STD #1 of the crystal form E of the compound represented by formula (II) was 1×, 10×, 100× and 1000× (methanesulfonate LOQ) diluted, and designated as the linear solutions L1, L2, L3, L4.
Step 3: Solubility Test of the crystal form B of the compound represented by formula (I), the crystal form G of the compound represented by formula (III) and the crystal form E of the compound represented by formula (II) in biological media and water
4 samples (about 4 mg) of each of the crystal form B of the compound represented by formula (I), the crystal form E of the compound represented by formula (II), and the crystal form G of the compound represented by formula (III) were added into 12 glass vials (4 mL), respectively, and then 2 mL different biological media (FaSSIF, FeSSIF, SGF) and water were added into each compound respectively, then mixed homogeneously to form a suspension. The suspension was detected for its initial pH value. A magnet was added into the suspension, and placed on a magnetic stirring heater for stirring (at a temperature of 37° C., in dark). After stirring for 24 h, a sample was taken. The taken sample was quickly centrifuged, and the residual solid was detected by XRPD. The supernatant was detected for its pH value and diluted with a diluent into appropriate multiple, then measured with HPLC for its concentration.
FaSSIF: 1. 0.042 g sodium hydroxide, 0.3438 g sodium dihydrogen phosphate and 0.6186 g sodium chloride were weighed, added into 90 mL purified water, and homogeneously mixed, then, the mixture was adjusted with 1 N hydrochloric acid or 1 N sodium hydroxide to pH=6.5, and diluted into a constant volume of 100 mL with purified water; 2. 50 mL of the buffer described above was taken, and 0.224 g commercially available powder (Biorelevant.com) of FaSSIF/FeSSIF/FaSSGF was added thereto, the mixture was stirred to dissolve, and diluted with purified water to a constant volume of 100 mL.
FeSSIF: 1. 0.404 g sodium hydroxide, 0.865 g glacial acetic acid, and 1.1874 g sodium chloride were weighed, added into 90 mL purified water, and homogeneously mixed, then, the mixture was adjusted with 1 N hydrochloric acid or 1 N sodium hydroxide to pH=5.0, and diluted with purified water to a constant volume of 100 mL, 2. 50 mL of the buffer described above was taken, and 1.12 g commercially available powder (Biorelevant.com) of FaSSIF/FeSSIF/FaSSGF was added thereto, the mixture was stirred to dissolve, and diluted with purified water to a constant volume of 100 mL.
FaSSGF (SGF): 1. 0.2 g sodium chloride was weighed, added into 90 mL purified water, and mixed homogeneously, the mixture was adjusted with 1 N hydrochloric acid to pH=1.8, and diluted with purified water to a constant volume of 100 mL, and stood at room temperature.

[2] = Stability of the crystal form on stirring as suspension in solvent (40° C., 2 days); format: physicochemical; settings: stirring in acetone at 40° C.
Protocol: 30 mg of the compound represented by formula (I) was weighed and added into a glass flask, 400 μL acetonitrile-water (1:1) was added to form a suspension. A sample of the suspension was placed on a magnetic stirrer (40° C.) for a dark stirring experiment. The sample of the suspension was centrifuged after stirring at 40° C. for 2 days, and then the residual sample was dried in a vacuum drying oven (30° C.) overnight to give a crystal form A of the compound represented by formula (I). The XRPD pattern of the crystal form A of the compound represented by formula (I) is shown in FIG. 1, the DSC pattern is shown in FIG. 2, and the TGA pattern is shown in FIG. 3.
30 mg of the compound represented by formula (I) was weighed and added into a glass flask, and 400 μL ethyl acetate was added to form a suspension. A sample of the suspension was placed on a magnetic stirrer (40° C.) for dark stirring experiment. The sample of the suspension was centrifuged after stirring at 40° C. for 2 days, and then the residual sample was dried in a vacuum drying oven (30° C.) overnight. The crystal form was detected by XRPD to give a crystal form A of the compound represented by formula (I).
30 mg of the compound represented by formula (I) was weighed and added into a glass flask, and 400 μL methanol was added to form a suspension. A sample of the suspension was placed on a magnetic stirrer (40° C.) for dark stirring experiment. The sample of the suspension was centrifuged after stirring at 40° C. for 2 days, and then the residual sample was dried in a vacuum drying oven (30° C.) overnight to give a crystal form B of the compound represented by formula (I). The XRPD pattern of the crystal form B of the compound represented by formula (I) is shown in FIG. 4, the DSC pattern is shown in FIG. 5, and the TGA pattern is shown in FIG. 6.
50 mg of the compound represented by formula (I) was weighed and added into a 1.5 mL liquid vial, and 200 μL methanol was added thereto, the obtained mixture was homogeneously mixed under ultrasound. The dissolved sample was quickly centrifuged, and the supernatant was placed in a centrifuge tube, the mouth of the tube was packed with a pierced aluminum foil, and then the tube was placed in a fume cupboard for volatilization; the sample of the suspension was placed on a magnetic stirring heater (40° C.) for stirring (in dark), and quickly centrifuged after 2 days. The resultant solid was collected and dried at 30° C. in a vacuum drying oven overnight to give the crystal form C of the compound represented by formula (I). The XRPD pattern of the crystal form C of the compound represented by formula (I) is shown in FIG. 7, the DSC pattern is shown in FIG. 8, and the TGA pattern is shown in FIG. 9.
50 mg of the compound represented by formula (I) was weighed and added into a 1.5 mL liquid vial, and 200 μL ethanol was added thereto, and the obtained mixture was homogeneously mixed under ultrasound. The dissolved sample was quickly centrifuged, the supernatant was placed into a centrifuge tube, and the mouth of the tube was packed with a pierced aluminum foil, and placed in a fume cupboard for volatilization; the sample of the suspension was placed on a magnetic stirring heater (40° C.) for stirring (in dark), and quickly centrifuged after 2 days. The solid obtained as above was collected and dried at 30° C. in a vacuum drying oven overnight to give a crystal form D of the compound represented by formula (I). The XRPD pattern of the crystal form D of the compound represented by formula (I) is shown in FIG. 10, the DSC pattern is shown in FIG. 11, and the TGA pattern is shown in FIG. 12.
35 mg of the compound represented by formula (II) was weighed and added into a 1.5 mL liquid vial, and 400 μL methanol was added thereto, and the obtained mixture was homogeneously mixed under ultrasound. […]

FGFR1 protein kinase = target: T1, FGFR1 protein kinase (Homo sapiens, UniProt P11362); experiment: In vitro enzyme activity test, Z'-LYTE Assay, FGFR1 enzymatic reaction; format: biochemical; settings: 25 uM ATP, room temperature 60 min
T1 construct: purchased Life technology
T1 sequence (P11362 22-822): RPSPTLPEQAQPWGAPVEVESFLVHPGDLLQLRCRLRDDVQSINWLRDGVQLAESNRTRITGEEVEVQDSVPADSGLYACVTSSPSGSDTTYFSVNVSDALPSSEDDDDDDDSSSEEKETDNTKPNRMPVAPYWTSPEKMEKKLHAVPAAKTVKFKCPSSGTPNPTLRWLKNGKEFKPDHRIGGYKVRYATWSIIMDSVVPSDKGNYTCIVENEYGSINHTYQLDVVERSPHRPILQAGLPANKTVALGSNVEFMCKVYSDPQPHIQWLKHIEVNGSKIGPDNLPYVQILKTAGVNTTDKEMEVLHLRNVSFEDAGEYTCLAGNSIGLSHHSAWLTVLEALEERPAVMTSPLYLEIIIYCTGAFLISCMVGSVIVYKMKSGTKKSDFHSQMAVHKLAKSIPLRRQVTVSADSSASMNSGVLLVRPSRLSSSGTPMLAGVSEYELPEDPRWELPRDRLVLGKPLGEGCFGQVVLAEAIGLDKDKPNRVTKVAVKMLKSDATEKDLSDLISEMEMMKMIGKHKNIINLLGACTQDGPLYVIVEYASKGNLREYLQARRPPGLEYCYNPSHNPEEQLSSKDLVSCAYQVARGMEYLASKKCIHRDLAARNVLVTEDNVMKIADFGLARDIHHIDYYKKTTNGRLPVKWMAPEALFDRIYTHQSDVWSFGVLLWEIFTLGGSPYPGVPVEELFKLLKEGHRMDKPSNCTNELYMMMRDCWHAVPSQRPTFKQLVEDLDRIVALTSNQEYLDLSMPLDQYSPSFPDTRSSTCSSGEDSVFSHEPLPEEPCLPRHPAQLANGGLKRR
Protocol: (§1) The enzyme activity was detected by Z′-LYTE® Assay with IC50 value of the compound used as an index for evaluating the inhibitory effect of the compound on FGFR4 kinases. The activity test was completed in Life technology.
(§2) The test compound was subjected to 3× gradient dilution, and the final concentrations included 10 concentrations from 10 μM to 0.5 nM, with two duplicates per concentration; the content of DMSO used in the detection reaction was 1%.
1 nM FGFR1 protein kinase, 2 μM Tyr4 peptide, 25 uM ATP, 50 mM HEPES (pH 7.5), 10 mM MgCl2, 1 mM EGTA, 0.01% BRIJ-35, 2 mM MnCl2, and 1 mM DTT. The detection plate was Black Proxiplate 384-Plus plate (PerkinElmer), the reaction was implemented at room temperature for 60 min, and the reaction system was 10 μL.
(§3) 5 μL Development reagent B (1:64) was added into the kinase reaction solution to stop the reaction, and the reaction solution was incubated at 23° C. for 60 min, the plate was read with Envision instrument.
(§4) The data were converted to the phosphorylation rate and the inhibitory rate, and was subjected to curve fitting with Model 205 in XLFIT (iDBS) to give the IC50 data of the compound. If the bottom of the curve was not in the range of −20% to 20%, it was set as 0%; and if the top of the curve was not in the range of 70% to 130%, it was set as 100%.

FGFR4 kinase = target: T2, FGFR4 kinase (Homo sapiens, UniProt P22455); experiment: In vitro enzyme activity test, Z'-LYTE Assay, FGFR4 enzymatic reaction; format: biochemical; settings: 150 μM ATP, room temperature 60 min
T2 construct: purchased Life technology
T2 sequence (P22455 22-802): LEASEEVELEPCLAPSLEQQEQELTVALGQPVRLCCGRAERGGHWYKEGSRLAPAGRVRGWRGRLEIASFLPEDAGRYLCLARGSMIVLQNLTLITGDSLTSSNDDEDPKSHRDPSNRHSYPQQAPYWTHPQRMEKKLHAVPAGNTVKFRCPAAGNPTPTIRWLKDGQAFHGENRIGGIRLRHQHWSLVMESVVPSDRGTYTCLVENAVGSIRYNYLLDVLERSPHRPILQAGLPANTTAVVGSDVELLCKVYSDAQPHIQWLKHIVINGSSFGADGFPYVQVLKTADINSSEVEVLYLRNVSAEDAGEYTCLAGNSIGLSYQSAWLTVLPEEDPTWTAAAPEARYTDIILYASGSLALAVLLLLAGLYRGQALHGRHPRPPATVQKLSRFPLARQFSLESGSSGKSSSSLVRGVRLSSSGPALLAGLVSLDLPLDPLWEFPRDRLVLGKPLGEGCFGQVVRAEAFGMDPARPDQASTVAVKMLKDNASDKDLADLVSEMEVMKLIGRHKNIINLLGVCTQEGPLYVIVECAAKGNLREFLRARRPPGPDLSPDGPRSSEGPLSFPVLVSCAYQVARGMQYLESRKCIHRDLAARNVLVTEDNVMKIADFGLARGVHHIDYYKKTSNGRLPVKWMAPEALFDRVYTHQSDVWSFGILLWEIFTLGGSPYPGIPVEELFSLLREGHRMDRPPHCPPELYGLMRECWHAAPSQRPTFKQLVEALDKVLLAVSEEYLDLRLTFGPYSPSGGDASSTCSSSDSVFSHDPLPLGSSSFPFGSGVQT
Protocol: as §1, §2
[…] The detection plate was Bar-coded Corning, low volume NBS, black 384-well plate, the reaction was implemented at room temperature for 60 min, and the reaction system was 10 μL.
as §3, §4

Row | SMILES | Status (24 h) ([1]; FaSSIF) | solubility in three types of biological media, conclusion in words ([1]; FaSSIF, FeSSIF, SGF) | Status (24 h) ([1]; FeSSIF) | solubility at 24 h ([1]; SGF (FaSSGF), pH 1.8, simulated gastric fluid, thermodynamic from solid, SGF) | Status (24 h) ([1]; SGF) | Status (24 h) ([1]; Water) | solubility at 24 h ([1]; pH 5, thermodynamic from solid, FeSSIF) | solubility at 24 h ([1]; pH 6.5, thermodynamic from solid, FaSSIF) | pH 24 hours ([1]; FaSSIF) | pH 24 hours ([1]; FeSSIF) | pH 24 hours ([1]; SGF) | pH 24 hours ([1]; Water) | pH 0 hour ([1]; suspension in FaSSIF) | pH 0 hour ([1]; suspension in FeSSIF) | pH 0 hour ([1]; suspension in SGF) | pH 0 hour ([1]; suspension in Water) | solubility at 24 h ([1]; thermodynamic from solid, Water) | stability in the acetone solution [2] | IC50 (FGFR1 protein kinase) | IC50 (FGFR4 kinase)
1 | C=CC(=O)N[C@H]1COC[C@H]1Nc1ncc(/C=C(\F)c2c(Cl)c(OC)cc(OC)c2Cl)cn1.O=S(=O)(O)O | Suspension | good solubility | Suspension | 0.045 mg/mL | Suspension | Suspension | 0.668 mg/mL | 0.079 mg/mL | 6.38 | 4.99 | 2.14 | 2.47 | 6.54 | 4.87 | 2.03 | 2.34 | 0.028 mg/mL | substantially high stability | – | –
2 | C=CC(=O)N[C@H]1COC[C@H]1Nc1ncc(/C=C(\F)c2c(Cl)c(OC)cc(OC)c2Cl)cn1 [Compound represented by formula (I)] | – | – | – | – | – | – | – | – | – | – | – | – | – | – | – | – | – | – | 1460 nM | 17 nM
